From patent US20240391872A1, “PHENOXY-ACETYL-THIOUREIDO-BENZENESULFONAMIDE DERIVATIVES, AND THEIR USES” (priority 2021, published 2024)
Entries after “also recorded” stand apart in the source; their conditions may differ. Where two headings read alike, the source gives them in different places.

Legend:
SARS-CoV-2 [1] = experiment: microbe, parasite or virus in culture; type: cell-based
SARS-CoV-2 [2] = experiment: microbe, parasite or virus in culture; type: cell-based; conditions: for IC50: SARS-CoV-2 MOI 0.01, 48 h, vRNA RT-qPCR; for antiviral activity (relative SARS-CoV-2 vRNA levels): MOI 0.01, 48 h, indicated concentrations
ZIKV = type: cell-based, Zika virus; conditions: MOI 0.3, 24 h
endoplasmic reticulum = experiment: Confocal imaging of ER morphology and compound localization in Huh7.5.1 cells; type: cell-based, human; conditions: 50 μM, 6 h, Calnexin staining
Protocol: FIG. 15 Huh7.5.1 cells were treated with 25 µM of RG10-Rhod or free Rhodamine for 3 h. Cells were fixed and stained using an anti-Calnexin antibody as a marker for ER membranes and DAPI for nuclear staining. One channel corresponds to rhodamine fluorescence. The micrographs show the individual channels and merge that have been acquired using confocal microscopy and processed using ImageJ. Scale bar=10 μm.
FIG. 17 Huh.7.5.1 cells were treated with 50 μM of RG10 for 6 h and then were processed for confocal imaging.
Cells were then fixed and stained using an anti-Calnexin antibody as a marker for ER membranes and DAPI for nuclear staining. The micrographs show the individual channels and merge that have been acquired using confocal microscopy and processed using ImageJ. Scale bar=10 μm.
Cells grown on #1.5 glass coverslips were fixed with 4% PFA for 15 min. Cells were then permeabilized with 0.1% Triton X100 and saturated with 0.2% BSA. Then, primary antibody incubation was performed for 1 h. After a series of PBS washes, secondary antibodies were added for 30 min. DAPI staining was performed for 10 min to obtain nuclear staining. Coverslips were mounted on glass slides using Mowiol mounting media. Images were acquired using a Leica SP5 confocal microscope.

[3] = Cytotoxicity, LDH release assay; type: cell-based
SARS-CoV-2 [4] = experiment: SARS-CoV-2 infection of human airway epithelia (HAE); type: cell-based; conditions: 10 μM; for viral RNA by RT-qPCR: wild type CoV2 MOI 0.01, 4 days
Protocol: (§1) FIG. 33 HAE cells were either untreated (Mock) or treated with 10 μM of RG10 and then infected with SARS-CoV-2 mNeonGreen virus at MOI 0.1. After 4 days, cells were fixed and stained for CoV2 spike protein and actin filaments (phalloidin staining). Z-stack images were acquired using a confocal microscope and processed using ImageJ to produce an average intensity image for each individual channel. Scale bar=20 μm.
as §1, with “34” for “33”
FIG. 35 3D representation of the images from [FIG. 33] and [FIG. 34] using the Imaris software. Scale bar=20 μm.
FIG. 37 Same samples from [FIG. 36] were processed to measure by RT-qPCR, relative vRNA levels normalized by Rpl27 RNA expression. The bars are means+/−SD from two pooled independent experiments. Student's t-test **p value<0.01; ***p value<0.005; ****p value<0.001.
FIG. 42 HAE cells were treated with 10 μM of RG10, RG10b, and Remdesivir and then infected for 4 days with CoV2 at MOI 0.01. Cells were then processed for RNA extraction and RT-qPCR experiments. […] Student's t-test *p value<0.05 **p value<0.01; ***p value<0.005.
Huh7.5.1 (Zhong J. et al. (2005) Proceedings of the National Academy of Sciences of the United States of America 102:9294-9), Vero E6 (ECACC #85020206), Caco2, and HEK 293T cells were cultured in DMEM GlutaMAX (Thermo Fisher Scientific) supplemented with 10% fetal calf serum and penicillin-streptomycin (500 μg/ml; GIBCO). HAE cells (Epithelix) were cultured in Mucilair media at the basal side and maintained at air-liquid interface. Apical washes were performed each 2-3 days by temporarily adding Mucilair media for 30 minutes. All cell types were maintained at 37° C. in a 5% CO2 atmosphere.
Cells were lysed and RNA immediately extracted using the Luna Cell Ready Lysis Module according to the manufacturer's protocol (New England Biolabs). RT-qPCR on extracted RNA was performed using the Luna One-Step RT-qPCR Kit (New England Biolabs). The samples were analyzed using a Lightcycler 480 instrument (Roche) using the following thermal cycle: Reverse transcription step at 55° C. for 15 min, initial denaturation at 95° C. for 2 min. Then, 40 cycles were programmed consisting of 15 s of denaturation at 95° C. followed by 30 s of annealing/extension at 55°. Fluorescent data collection was performed at the end of each cycle. SARS-CoV-2 viral RNA was detected using the N1 probe that targets specifically the N protein. […]

N-mRuby3 CoV2 = experiment: Live cell imaging and tracking of N-mRuby3 CoV2 particles in Huh7.5.1 cells; type: cell-based, SARS-CoV-2
sXBP1 = sXBP1 RNA levels in HAE cells infected with CoV2; type: cell-based, human; conditions: 10 μM, CoV2 MOI 0.01, 4 days
Protocol: FIG. 36 HAE cells were treated with 10 μM of RG10 and Remdesivir and then infected with wild type CoV2 at MOI 0.01 for 4 days. Graphs show relative sXBP1 RNA levels normalized with GAPDH RNA expression.
Cells were lysed and RNA immediately extracted using the Luna Cell Ready Lysis Module according to the manufacturer's protocol (New England Biolabs). RT-qPCR on extracted RNA was performed using the Luna One-Step RT-qPCR Kit (New England Biolabs). The samples were analyzed using a Lightcycler 480 instrument (Roche) using the following thermal cycle: Reverse transcription step at 55° C. for 15 min, initial denaturation at 95° C. for 2 min. Then, 40 cycles were programmed consisting of 15 s of denaturation at 95° C. followed by 30 s of annealing/extension at 55°. Fluorescent data collection was performed at the end of each cycle. SARS-CoV-2 viral RNA was detected using the N1 probe that targets specifically the N protein. For normalization, primers targeting Rpl27 or GAPDH were utilized.

HCoV-229E-Renilla = type: cell-based, human coronavirus 229E
SARS-CoV-2 [5] = type: cell-based; conditions: Caco2 cells, 10 μM, MOI 0.01, 48 h
SARS-CoV-2 [6] = experiment: Time-of-addition experiment, CoV2 in Vero E6 cells; type: cell-based
sXBP-1 = experiment: ER stress mediator RNA levels by RT-qPCR in Huh7.5.1 cells; type: cell-based, human
Vero E6 cells = conditions: cited from earlier work
[7] = infected non-human primates; cited from earlier work
[8] = Innocuity assessment in mice (weight); type: in vivo; conditions: concentrations up to 10 mg/kg
Description: Two mice were used per condition.
(§2) The low potency of RG10 in HAE could be attributed to its weak stability and therefore, the inventor designed a novel RG10 derivative, which the inventor called RG10b. This derivative harbors a modification shielding a molecular weakness present in RG10.

[9] = Pharmacokinetics experiments in mice; type: in vivo; conditions: blood
Description: as §2

[10] = Huh 7.5.1 cells, 10 μM, MOI 0.01, 48 h
[11] = Huh 7.5.1 cells, 25 μM, MOI 0.01, 48 h
[12] = Severe acute respiratory syndrome coronavirus 2, Vero C1008, Vero E6 cells
[13] = Huh7.5.1 cells, 10 μM, MOI 0.5, 48 h

COc1ccc(N2CCCC(NC(=S)Nc3ccc(S(=O)(=O)NC4CCCCC4)cc3)C2)cc1 (stereo not drawn) [RG27-8]
antiviral activity (relative SARS-CoV-2 vRNA levels) (SARS-CoV-2 [1]; [10]): cannot be observed
antiviral activity (relative SARS-CoV-2 vRNA levels) (SARS-CoV-2 [1]; [11]): harbor also an antiviral activity

COc1ccc(N2CCC(NC(=S)Nc3ccc(S(=N)(=O)NC4CCCCC4)cc3)C2)cc1 (stereo not drawn) [RG27-1]
antiviral activity (relative SARS-CoV-2 vRNA levels) (SARS-CoV-2 [1]; [10]): cannot be observed
antiviral activity (relative SARS-CoV-2 vRNA levels) (SARS-CoV-2 [1]; [11]): harbor also an antiviral activity

Tunicamycin [reference compound]
antiviral activity against CoV2 (relative vRNA levels) (SARS-CoV-2 [2]): active against both viruses
antiviral activity against ZIKV (relative vRNA levels) (ZIKV; Vero E6, 1 μM): active against both viruses

COc1ccc(OCCNC(=S)Nc2ccc(S(=O)(=O)NC3CCCCC3)cc2)cc1 [RG10]
IC50 (SARS-CoV-2 [2]; [12]): 1.55 µM
antiviral activity (relative SARS-CoV-2 vRNA levels) (SARS-CoV-2 [2]; Vero E6 cells): potent antiviral molecule with similar activity levels as Remdesivir; also recorded: high CoV2 antiviral activity
ER morphology (endoplasmic reticulum): perturbed ER morphology
cytotoxicity [3]: did not show cytotoxicity at working concentrations
cytotoxicity ([3]; LDH release, working concentrations): very low cytotoxicity compared to Latrunculin, jasplakinolide and cytocalasin D
antiviral activity against ZIKV (relative vRNA levels) (ZIKV; Vero E6, 10 μM): no detectable effect on ZIKV; also recorded: unable to inhibit ZIKV replication
HAE viability (SARS-CoV-2 [4]; 4 days): viability was similar
viral infection, fluorescent mNeonGreen virus (SARS-CoV-2 [4]; MOI 0.1, 4 days): decreases viral infection
viral RNA by RT-qPCR (SARS-CoV-2 [4]): decreased by RG10, although the extent of the decrease was much lower than Remdesivir treatment
mean particle speed of virus (N-mRuby3 CoV2): slowed down virus movement to the ER
sXBP-1 RNA levels (sXBP1): upregulated
antiviral activity against HCoV-229E (HCoV-229E-Renilla): significant antiviral activity, although potency was lower
CoV2 antiviral activity (relative vRNA levels) (SARS-CoV-2 [5]): high CoV2 antiviral activity
CoV2 antiviral activity (relative vRNA levels) (SARS-CoV-2 [1]; [10]): high CoV2 antiviral activity
neosynthesized Spike protein, Western blot (SARS-CoV-2 [1]; [13]): could barely be detected
viral RNA synthesis, dsRNA immunolabeling (SARS-CoV-2 [1]; [13]): prevents viral RNA synthesis
viral protein synthesis, microscopy and flow cytometry (SARS-CoV-2 [1]; [13]): prevent viral protein synthesis
potency at high multiplicity of infection (SARS-CoV-2 [1]; Huh7.5.1 cells, 10 μM, indicated MOI, 48 h): retained potency at high multiplicity of infection (MOI) similar to Rem
EC50 (SARS-CoV-2 [1]; Severe acute respiratory syndrome coronavirus 2, Huh-7.5.1, potency in Huh7.5.1 cells (FIG. 3)): ~1.5 µM
antiviral activity, vRNA levels, RG10 Pre (SARS-CoV-2 [6]; Vero E6, MOI 0.1, 10 μM during the first 4 h of infection and washed-out): no antiviral activity when incubated only during virus entry
vRNA expression levels, RG10 Post (SARS-CoV-2 [6]; Vero E6, MOI 0.1, 10 μM starting at 4 h post-infection): significantly decreased vRNA expression levels
viral N protein and dsRNA levels by flow cytometry, entry steps (SARS-CoV-2 [6]; Vero E6, MOI 0.1, 10 μM, 24 h): some inhibition was also observed at the entry steps
viral N protein and dsRNA levels by flow cytometry, post entry (SARS-CoV-2 [6]; Vero E6, MOI 0.1, 10 μM, 24 h): strong antiviral activity post entry
sXBP-1 RNA levels (sXBP-1; 10 μM): no difference was observed between RG10 and RG7
sXBP-1 RNA levels (sXBP-1; 50 μM, 6 h): enriched

NC(=O)c1nc(F)c[nH]c1=O [favipiravir]
potency in vitro (Vero E6 cells; in vitro): very low potency in vitro

O[C@@H](CS)[C@@H](O)CS [DTT, reference compound]
sXBP-1 RNA levels (sXBP-1; 1 mM, 6 h, positive control of ER stress): enriched

CCN(CCO)CCCC(C)Nc1ccnc2cc(Cl)ccc12 (stereo not drawn) [Hydroxychloroquine]
viral loads [7]: does not decrease the viral loads
EC50 (Vero E6 cells; Vero E6 cells): ~2 µM

COc1ccc(N2CCC(NC(=S)Nc3ccc(S(=O)(=O)NC4CCCCC4)cc3)C2)cc1 (stereo not drawn) [RG10b]
EC50 (SARS-CoV-2 [2]; Severe acute respiratory syndrome coronavirus 2, Vero C1008, Vero E6 cells, CoV2 48 h (FIGS. 38 and 39)): < 1 µM
IC50 (SARS-CoV-2 [2]; [12]): ~0.99 µM
antiviral activity (relative SARS-CoV-2 vRNA levels) (SARS-CoV-2 [2]; Vero E6 cells): more potent than RG10
viral RNA by RT-qPCR (SARS-CoV-2 [4]): more potent than RG10, showing antiviral activity similar to Remdesivir
innocuity / toxicity in mice [8]: well supported by mice at concentrations up to 10 mg/kg; also recorded: no toxicity observed
half-life relative to RG10 [9]: more than 3 fold
half-life ([9]; mouse, read-out: pharmacokinetic half-life / stability in vivo): > 2 h
